{
  "source": "PubChem BioAssay (NCI)",
  "experiment_in_all_cases": "DTP human tumour cell line panel, 48 h",
  "key": {"A549 NSCLC": {"system": "A549 NSCLC"}, "CCRF-CEM leukemia": {"system": "CCRF-CEM leukemia"}, "HCC-2998 colon": {"system": "HCC-2998 colon"}, "HCT-116 colon": {"system": "HCT-116 colon"}, "HCT-15 colon": {"system": "HCT-15 colon"}, "KM12 colon": {"system": "KM12 colon"}, "NCI-H226 lung": {"system": "NCI-H226 lung"}, "OVCAR-3 ovarian": {"system": "OVCAR-3 ovarian"}, "SF-268 CNS": {"system": "SF-268 CNS"}, "SK-MEL-5 melanoma": {"system": "SK-MEL-5 melanoma"}, "NCI-H460 lung": {"system": "NCI-H460 lung"}},
  "note": "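Test compounds were applied to cells in 96-well plates for 48 hours at 5 doses. GI50 = concentration required for 50% inhibition of growth. TGI is the concentration that stops growth completely.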",
  "data": [
    {"smiles": "OCC(O)COc1ccc(Br)cc1", "note": "(stereo unspecified)", "values": [
      {"measurement": "TGI", "setting": "A549 NSCLC", "result": "> 100", "unit": "µM"},
      {"measurement": "TGI", "setting": "CCRF-CEM leukemia", "result": "> 100", "unit": "µM"},
      {"measurement": "TGI", "setting": "HCC-2998 colon", "result": "> 100", "unit": "µM"},
      {"measurement": "TGI", "setting": "HCT-116 colon", "result": "> 100", "unit": "µM"},
      {"measurement": "TGI", "setting": "HCT-15 colon", "result": "> 100", "unit": "µM"},
      {"measurement": "TGI", "setting": "KM12 colon", "result": "> 100", "unit": "µM"},
      {"measurement": "TGI", "setting": "NCI-H226 lung", "result": "> 100", "unit": "µM"},
      {"measurement": "TGI", "setting": "OVCAR-3 ovarian", "result": "> 100", "unit": "µM"},
      {"measurement": "TGI", "setting": "SF-268 CNS", "result": "> 100", "unit": "µM"},
      {"measurement": "TGI", "setting": "SK-MEL-5 melanoma", "result": "> 100", "unit": "µM"}
    ]},
    {"smiles": "Cc1ccc(OP2(=O)Oc3ccc4ccccc4c3CN2c2ccc(Cl)cc2)cc1C", "note": "(stereo unspecified)", "values": [
      {"measurement": "TGI", "setting": "A549 NSCLC", "result": "> 100", "unit": "µM"},
      {"measurement": "TGI", "setting": "CCRF-CEM leukemia", "result": "> 100", "unit": "µM"},
      {"measurement": "TGI", "setting": "HCC-2998 colon", "result": "> 100", "unit": "µM"},
      {"measurement": "TGI", "setting": "HCT-116 colon", "result": "> 100", "unit": "µM"},
      {"measurement": "TGI", "setting": "HCT-15 colon", "result": "> 100", "unit": "µM"},
      {"measurement": "TGI", "setting": "KM12 colon", "result": "> 100", "unit": "µM"},
      {"measurement": "TGI", "setting": "NCI-H226 lung", "result": "> 100", "unit": "µM"},
      {"measurement": "TGI", "setting": "NCI-H460 lung", "result": "> 100", "unit": "µM"},
      {"measurement": "TGI", "setting": "OVCAR-3 ovarian", "result": "> 100", "unit": "µM"},
      {"measurement": "TGI", "setting": "SF-268 CNS", "result": "> 100", "unit": "µM"},
      {"measurement": "TGI", "setting": "SK-MEL-5 melanoma", "result": "> 100", "unit": "µM"}
    ]},
    {"smiles": "COc1ccc(C(=O)C2CC3(CCC2(O)c2ccc(OC)cc2)CC(=O)Nc2ccccc2C3=O)cc1", "note": "(stereo unspecified)", "values": [
      {"measurement": "TGI", "setting": "A549 NSCLC", "result": "> 100", "unit": "µM"},
      {"measurement": "TGI", "setting": "CCRF-CEM leukemia", "result": "> 100", "unit": "µM"},
      {"measurement": "TGI", "setting": "HCC-2998 colon", "result": "> 100", "unit": "µM"},
      {"measurement": "TGI", "setting": "HCT-116 colon", "result": "> 100", "unit": "µM"},
      {"measurement": "TGI", "setting": "HCT-15 colon", "result": "> 100", "unit": "µM"},
      {"measurement": "TGI", "setting": "NCI-H226 lung", "result": "> 100", "unit": "µM"},
      {"measurement": "TGI", "setting": "NCI-H460 lung", "result": "> 100", "unit": "µM"},
      {"measurement": "TGI", "setting": "OVCAR-3 ovarian", "result": "> 100", "unit": "µM"},
      {"measurement": "TGI", "setting": "SF-268 CNS", "result": "> 100", "unit": "µM"},
      {"measurement": "TGI", "setting": "SK-MEL-5 melanoma", "result": "> 100", "unit": "µM"}
    ]},
    {"smiles": "CO/C(=N\\N=C(/C)C(F)(F)F)c1ccncc1", "values": [
      {"measurement": "TGI", "setting": "CCRF-CEM leukemia", "result": "> 100", "unit": "µM"},
      {"measurement": "TGI", "setting": "HCT-116 colon", "result": "> 100", "unit": "µM"},
      {"measurement": "TGI", "setting": "HCT-15 colon", "result": "> 100", "unit": "µM"},
      {"measurement": "TGI", "setting": "KM12 colon", "result": "> 100", "unit": "µM"},
      {"measurement": "TGI", "setting": "NCI-H226 lung", "result": "> 100", "unit": "µM"},
      {"measurement": "TGI", "setting": "NCI-H460 lung", "result": "> 100", "unit": "µM"},
      {"measurement": "TGI", "setting": "OVCAR-3 ovarian", "result": "> 100", "unit": "µM"},
      {"measurement": "TGI", "setting": "SK-MEL-5 melanoma", "result": "> 100", "unit": "µM"}
    ]},
    {"smiles": "CCOc1ncn(-c2ccc(NC(=S)Nc3cccc(O)c3)cc2)n1", "values": [
      {"measurement": "TGI", "setting": "A549 NSCLC", "result": "> 100", "unit": "µM"},
      {"measurement": "TGI", "setting": "CCRF-CEM leukemia", "result": "> 100", "unit": "µM"},
      {"measurement": "TGI", "setting": "HCC-2998 colon", "result": "> 100", "unit": "µM"},
      {"measurement": "TGI", "setting": "HCT-116 colon", "result": "> 100", "unit": "µM"},
      {"measurement": "TGI", "setting": "HCT-15 colon", "result": "> 100", "unit": "µM"},
      {"measurement": "TGI", "setting": "KM12 colon", "result": "> 100", "unit": "µM"},
      {"measurement": "TGI", "setting": "NCI-H460 lung", "result": "> 100", "unit": "µM"},
      {"measurement": "TGI", "setting": "OVCAR-3 ovarian", "result": "> 100", "unit": "µM"},
      {"measurement": "TGI", "setting": "SF-268 CNS", "result": "> 100", "unit": "µM"},
      {"measurement": "TGI", "setting": "SK-MEL-5 melanoma", "result": "> 100", "unit": "µM"}
    ]},
    {"smiles": "ClCCN(CCCl)Cc1ccc(Nc2ccnc3cc(Cl)ccc23)cc1", "values": [
      {"measurement": "GI50", "setting": "A549 NSCLC", "result": 1.11, "unit": "µM"},
      {"measurement": "TGI", "setting": "A549 NSCLC", "result": 5.08, "unit": "µM"},
      {"measurement": "GI50", "setting": "CCRF-CEM leukemia", "result": 0.265, "unit": "µM"},
      {"measurement": "TGI", "setting": "CCRF-CEM leukemia", "result": 2.99, "unit": "µM"},
      {"measurement": "GI50", "setting": "HCC-2998 colon", "result": 1.41, "unit": "µM"},
      {"measurement": "TGI", "setting": "HCC-2998 colon", "result": 2.76, "unit": "µM"},
      {"measurement": "GI50", "setting": "HCT-116 colon", "result": 1.56, "unit": "µM"},
      {"measurement": "TGI", "setting": "HCT-116 colon", "result": "> 100", "unit": "µM"},
      {"measurement": "GI50", "setting": "KM12 colon", "result": 2.07, "unit": "µM"},
      {"measurement": "TGI", "setting": "KM12 colon", "result": 5.57, "unit": "µM"},
      {"measurement": "GI50", "setting": "NCI-H226 lung", "result": 1.41, "unit": "µM"},
      {"measurement": "TGI", "setting": "NCI-H226 lung", "result": 3.78, "unit": "µM"},
      {"measurement": "GI50", "setting": "NCI-H460 lung", "result": 0.402, "unit": "µM"},
      {"measurement": "TGI", "setting": "NCI-H460 lung", "result": 10.7, "unit": "µM"},
      {"measurement": "GI50", "setting": "SF-268 CNS", "result": 1.18, "unit": "µM"},
      {"measurement": "TGI", "setting": "SF-268 CNS", "result": 5.68, "unit": "µM"}
    ]},
    {"smiles": "COc1ccc2c(O)c3[n+](cc2c1OC)CCc1cc2c(cc1-3)OCO2", "values": [
      {"measurement": "TGI", "setting": "A549 NSCLC", "result": "> 100", "unit": "µM"},
      {"measurement": "TGI", "setting": "CCRF-CEM leukemia", "result": "> 100", "unit": "µM"},
      {"measurement": "TGI", "setting": "HCC-2998 colon", "result": "> 100", "unit": "µM"},
      {"measurement": "TGI", "setting": "HCT-116 colon", "result": "> 100", "unit": "µM"},
      {"measurement": "TGI", "setting": "HCT-15 colon", "result": "> 100", "unit": "µM"},
      {"measurement": "TGI", "setting": "KM12 colon", "result": "> 100", "unit": "µM"},
      {"measurement": "TGI", "setting": "NCI-H226 lung", "result": "> 100", "unit": "µM"},
      {"measurement": "TGI", "setting": "NCI-H460 lung", "result": "> 100", "unit": "µM"},
      {"measurement": "TGI", "setting": "OVCAR-3 ovarian", "result": "> 100", "unit": "µM"},
      {"measurement": "TGI", "setting": "SF-268 CNS", "result": "> 100", "unit": "µM"},
      {"measurement": "TGI", "setting": "SK-MEL-5 melanoma", "result": "> 100", "unit": "µM"}
    ]}
  ]
}
